One compound from PMC9652379, “Safety evaluations of a synthetic antimicrobial peptide administered intravenously in rats and dogs” (Scientific Reports, 2022) can be followed below.

Each structure is given as a SMILES string. Positions of bridges follow the written chain, without caps; N, C: chain ends. Non-standard residues stand in square brackets, D forms with d. Residues, ends and D or L forms follow the SMILES beside them. Chains are numbered I, II in the order given. βAla = NCCC(=O)O

One series has as its system beagle dogs. The experiment in a line: Dose range finding in dogs: clinical signs, body weight, survival. Format: in vivo, dog. How it is done:
The purpose of this study was to conduct DRF for SET-M33 administered by short intravenous infusion (30 min) to beagle dogs at 4.0 and 8.0 mg/kg/day (7-day treatment period). Two animals served as control group (one male, one female), and four animals were assigned to treated groups (two males, two females). The doses were determined by a preliminary study not reported here.
Naïve beagle dogs were used for the toxicity studies. The animals were supplied by Marshall US. They were 9–10 months old at the start of treatment with a body-weight range of 9.1–10 kg for the DRF study. They were 6–7 months old at the start of treatment with a body-weight range of 6.6–8.6 kg for males and 5.1–6.5 kg for females for the 4-week toxicity study. The method of administration was an intravenous short infusion with an infusion pump, alternately either into the cephalic or saphenous veins using sterile disposable cannulas and syringes. The volume of the dose of SET-M33 and control in two studies was 2, 5 and 5 mL/Kg body weight, respectively.
Viability/mortality were recorded at least twice daily. […] Injection sites were examined daily during dosing. For clinical investigation, blood obtained via jugular venepuncture from anaesthetized dogs was used to analyse blood, coagulation and biochemical parameters.

Another series has as its system Sprague Dawley rats. Nature of the series: Four-week toxicity study with 2-week recovery in rats: mortality, clinical signs, body weight. Format: in vivo, rat. The note with it: for weight loss of euthanized animal: 15 mg/kg/day. How it is done: The purpose of this study was to evaluate the toxic effects of SET-M33 when administered intravenously to Sprague Dawley rats for 4 weeks. Recovery was evaluated during a 14-day drug-free period. The peptide was administered once a day at three dose levels at 5, 9 and 15 mg/kg/day, and the control group was treated with the vehicle (ten males and ten females per group which were sacrificed after 4 weeks for clinical and necroscopy analyses; five males and five females for the control and 15 mg/kg/day groups which were sacrificed after the 2 weeks recovery period). The higher dose was selected on the basis of the DRF study (above) in which evident toxicity was recorded at the dose of 20 mg/kg. The efficacy dose in mouse is 5 mg/kg[24]. The lowest dose of this test is approximately twice the equivalent efficacy dose in rat (using body surface area) and the intermediate dose is approximately the geometric mean of the other two.
One male died on day 8 and one male and one female were euthanized for animal welfare reasons on days 6 and 10 of the recovery period, respectively, after showing various clinical signs (hunched back, abnormal gait and pallor) and weight loss of 14% and 11%, respectively. SET-M33-related effects consisting of decreased motor activity, irregular breathing, piloerection, closed or partially closed eyelids, abnormal gait and hunched back were recorded in animals treated at 15 mg/kg/day just after administration for the whole treatment period (as in the DRF study above). […] Among animals that had to be sacrificed for welfare reasons, abnormal gait, partially closed eyelids (the male) and decreased motor activity and piloerection (the female) were also recorded from day 3 onwards. […] During the recovery period, body-weight loss (between 2 and 14% based on individual values) was recorded in some animals dosed at 15 mg/kg/day.
Viability/mortality was monitored twice daily throughout the study. Detailed clinical signs were evaluated once at pre-test, once/twice daily during the treatment period and on days 1, 8, 10 to 14 of the recovery period. […]

The subject of a further series is male rats. The experiment in a line: Neurological toxicity in rats (Irwin test, body temperature, locomotor activity, body weight). The class given is in vivo. How it is done: The purpose of this study was to evaluate the neurological side-effects of SET-M33 following a single intravenous injection of 5, 9 and 15 mg/kg and vehicle (6 animals/group). The study was based on subjective observation of central nervous system effects on general behaviour (Irwin test), combined with objective evaluation of body temperature and locomotor activity in male rats[32],[33]. Effects on body weight were also assessed. Again the dose levels were selected on the basis of the DRF study reported above.
Evaluation of SET-M33 neurological toxicity was based on the method described by Irwin[32],[33]. On the day prior to dosing, detailed subjective observation of all animals was made to assess the neurobehavioral and physiological state of untreated rats. After subjective observation, rectal temperature was measured and spontaneous locomotor activity was assessed. On the day of dosing, the animals were treated and then returned to their home cages. […] During these observations, the following parameters were systematically evaluated for each animal using a standard procedure: lethality, restlessness, apathy, writhing, fighting, stereotyped behaviour, tremor, twitches, convulsions, exophthalmos, abnormal respiration, alertness, startle response, loss of righting reflex, abnormal body carriage, abnormal gait, Straub tail, piloerection, pupil diameter, light-pupil response, touch response, fearfulness, pinna reflex, corneal reflex, catalepsy, passivity, aggressiveness, body tone, grip strength, cutaneous blood flow, cyanosis, ptosis, lacrimation, salivation, pain response, motility impairment, grooming, diarrhoea, vocalization, increased urination. Normal attributes of animals (e.g. alertness, body tone etc.) were subjectively scored as 4; enhancement or depression of these attributes by SET-M33 was scored with higher or lower integers, respectively. Attributes normally absent in animals (e.g. abnormal gait, abnormal respiration, tremors etc.) were subjectively scored from 0 (normal) to 8. […] Finally, spontaneous locomotor activity was analysed. […]

For the compound `CC[C@H](C)[C@H](NC(=O)[C@H](CCCCN)NC(=O)[C@@H](N)CCCCN)C(=O)N[C@@H](CCCNC(=N)N)C(=O)N[C@H](C(=O)N[C@@H](CCCNC(=N)N)C(=O)N[C@@H](CC(C)C)C(=O)N[C@@H](CO)C(=O)N[C@@H](C)C(=O)NCCCC[C@H](NC(=O)[C@H](C)NC(=O)[C@H](CO)NC(=O)[C@H](CC(C)C)NC(=O)[C@H](CCCNC(=N)N)NC(=O)[C@@H](NC(=O)[C@H](CCCNC(=N)N)NC(=O)[C@@H](NC(=O)[C@H](CCCCN)NC(=O)[C@@H](N)CCCCN)[C@@H](C)CC)C(C)C)C(=O)NCCCC[C@H](NC(=O)[C@H](CCCCNC(=O)[C@H](C)NC(=O)[C@H](CO)NC(=O)[C@H](CC(C)C)NC(=O)[C@H](CCCNC(=N)N)NC(=O)[C@@H](NC(=O)[C@H](CCCNC(=N)N)NC(=O)[C@@H](NC(=O)[C@H](CCCCN)NC(=O)[C@@H](N)CCCCN)[C@@H](C)CC)C(C)C)NC(=O)[C@H](C)NC(=O)[C@H](CO)NC(=O)[C@H](CC(C)C)NC(=O)[C@H](CCCNC(=N)N)NC(=O)[C@@H](NC(=O)[C@H](CCCNC(=N)N)NC(=O)[C@@H](NC(=O)[C@H](CCCCN)NC(=O)[C@@H](N)CCCCN)[C@@H](C)CC)C(C)C)C(=O)NCCC(=O)O)C(C)C` [SET-M33] (I: H-KKIRVRLSAKK[βAla]-OH / II: H-KKIRVRLSAK / III: H-KKIRVRLSA / IV: H-KKIRVRLSA; amide I:10-IV:C, I:11-II:C, II:10-III:C (inferred); N-terminus and C-terminus assumed), the survival result with beagle dogs (dogs, 4.0 and 8.0 mg/kg/day 30-min iv infusion, 7 days) is listed as “All animals survived the scheduled period”. In the series with beagle dogs (one dog, 8 mg/kg/day 30-min iv infusion, end of 7-day treatment), the “loss of body weight with respect to day 1” value worked out at 9.4%. The “weight loss of euthanized animal” value turned out to be 11% with Sprague Dawley rats (one female rat, euthanized day 10 of recovery) and 14% in the series with Sprague Dawley rats (one male rat, euthanized day 6 of recovery). For the same compound, in the series on Sprague Dawley rats (rats, 5, 9 and 15 mg/kg/day iv 4 weeks + 2-week recovery), the mortality entry is on record as “Mortality was only recorded at 15 mg/kg/day”. Also, the “adverse clinical signs (Irwin test)” value in the series with male rats (male rats, 5, 9 and 15 mg/kg single iv, 5, 30, 90, 240 min and 24 h post-dose) is “did not cause any adverse clinical signs”. Moreover, in the series with male rats (male rats, 5, 9 and 15 mg/kg single iv, up to day 7), the “delayed toxicity and mortality” value is “No delayed effects of toxicity and no mortality”. For the same compound, the “group mean body temperature lower than vehicle-treated control group” value with male rats (male rats, 9 and 15 mg/kg single iv, 5 min post-dose) was 0.4–0.6 °C.
